In patent publication US5420276A, “Analogs of oxetanyl purines and pyrimidines” (Abbott Laboratories, priority 1993, dated 1995):
≈ marks a conversion by molar mass, not a printed value.

Key:
[1] = test system: Herpes Simplex Virus Type 1; test: Neutral red dye uptake assay for antiviral activity, HSV-1 in Vero cells; assay type: cell-based; settings: Human alphaherpesvirus 1, HSV-1, Vero, concentration at which 50% CPE would be observed, read-out: MIC50
Method: Vero cell monolayers were harvested by trypsinization. The number of viable cells per ml. was determined by staining an aliquot with trypan blue and counting in a hemocytometer. Cell densities were adjusted in growth medium to contain 4×10^5 cells/mi. 96-well sterile tissue culture plates were seeded with 100 μl/well of the adjusted cell suspensions, i.e., 4×10^4 cells/well. Seeded plates were incubated overnight at 37° C. with CO2.
After overnight incubation, monolayers were approximately confluent. The growth medium was removed and the monolayers in each cell were infected with 100 μl of virus diluted in maintenance medium to produce approximately 90% cytopathogenic effect (CPE) after 2 to 3 days incubation. The virus was allowed to adsorb for 1 hour at 37° C. with 4 to 6% CO2. Controls for cell growth were overlayed with virus-free maintenance medium. The maintenance medium containing residual virus was removed.
The test compounds were dissolved and/or diluted in maintenance medium to the concentration desired for testing and were added to the wells of the plate. Aliquots (100 μl ) of each concentration were added to wells in replicate (duplicate or triplicate). Controls for virus activity were overlayed with drug-free maintenance medium. Replicate wells containing only maintenance medium served as controls for background absorbance levels.
After incubation, the medium was removed from all the wells. 100 μl of neutral red solution was added to each well and the plate was incubated at 37° C. without CO2 for 2 hours. After the 2 hour incubation, the excess neutral red solution was removed. […]
The neutral red stain taken up by the viable cells was extracted by adding 100 μl/well of acidified methanol, pH 1.0. […] The amount of neutral red stain extracted into the methanol was quantified by determining the absorbance at a wavelength of 540 nm.
The percent CPE in virus controls was determined by the following formula: [formula]
The percent CPE in cells infected with virus and treated with the test compound was determined by the following formula: [formula] […]

HSV-1 (E-377) = test: CPE inhibition assay (MTT), HSV-1 (E-377) in Vero cells; assay type: cell-based, herpes simplex virus type 1; settings: Human alphaherpesvirus 1, inhibited CPE by 50%
Method: Vero cells were pregrown as monolayers in wells of COSTAR 96-well tissue culture plates using suitable cell culture media. Stock viruses were pretitered according to the method of Reed and Muench (Amer. J. Hyg. 27 493 (1938)) and diluted in cell culture medium to yield 32 CCID50 (cell culture infectious dose, 50%) units per 0.1 mL. Antiviral assays were designed to test six concentrations of each compound, from cytotoxic to noncytotoxic levels, in triplicate against each of the challenge viruses in microtiter plate wells containing cell monolayers. To each of the replicate cell cultures were added 0.1 mL of the test-compound solution and 0.1 mL of virus suspension. Two compounds were evaluated per plate. The following controls were included:
(1) Cell controls containing cells+medium;
(2) Untreated, virus-infected cell controls;
(3) Test-compound cytotoxicity controls containing uninfected, test-compound treated cells;
(4) Test-compound color controls-test-compound+medium (no cells); and
(5) Reagent (experiment medium) controls-medium only (no cells).
The covered plates were incubated at 37° C. in a humidified atmosphere containing 2% CO2. When cytopathogenic effect (CPE) in untreated virus control wells reached 100%, 20 μL of 3-(4,5-dimethyl-thiazol-2-yl)-2,5-diphenyl tetrazolium bromide (MTT) (dissolved in PBS at 5 mg/mL) was pipetted into each of the plate wells. The plates were incubated at 37° C. for six hours; then 40 μL of 30% SDS (in 0.02N HCl) was added to each well. After overnight incubation at 37° C., the blue color or the MTT formazan was measured spectrophotometrically at 570 nm. The optical density (OD) value of each culture is a function of the amount of formazan produced which is proportional to the number of viable cells. A computer program was utilized to calculate the percent (CPE) reciprocal of % CPE reduction) of the virus-infected wells and % cell viability of the uninfected test-compound control wells.
The IC50 value is the minimum test-compound concentration (μg/mL) that inhibited CPE by 50% calculated by using a regression analysis program for semilog curve fitting. The TC25 value is the minimum test-compound concentration (μg/mL) that reduced cell viability by 25%.

- IC50 (HSV-1 (E-377)): 0.072 µg/mL (≈ 0.216 µM)
Structure (SMILES): O=c1[nH]c(=O)n([C@@H]2O[C@H](CO)[C@H]2CO)cc1C=CBr [Example 44, 1-([2'R, 3'R, 4'S]-3',4'-Bis(hydroxymethyl)-2'-oxetanyl)-5-(2-bromo-1-vinyl)uracil]
- EC50 [1]: 0.09 µg/mL (≈ 0.27 µM)
